In patent US20210282443A1, “COMPOUNDS, COMPOSITIONS, AND METHODS FOR MODULATING SWEET TASTE” (Chromocell Corporation, priority 2016, published 2021):

Test system: perception of sweet taste of High Fructose Corn Syrup (HFCS)
Test: 2AFC sip and spit sensory test, sweet taste of HFCS in Lemon Lime beverage
Assay type: in vivo, humans
Conditions: Lemon Lime pH 3.1
Procedure: The effect of the test compounds and combinations of test compounds on the perception of the sweet taste of a flavored beverage (referred to as Lemon Lime henceforth) of sweetener in humans was evaluated using a two-alternative forced choice “sip and spit” method (2AFC). The Lemon Lime solutions were prepared by adding sucrose equivalent (SE) quantities of high fructose corn syrup (HFCS) (by weight), to water to achieve the desired concentration. The lemon lime pH is 3.1. Compounds were first prepared as a 500-fold concentrated stock solution in 100% ethanol. These concentrated stocks were then added to the aqueous sweetener solutions to result in a final ethanol concentration of 0.2%. The control (positive and negative) samples were also normalized to 0.2% ethanol. This level of ethanol was not seen to contribute any perceived sweetness. The 2AFC test used for compound evaluation was a double blinded and randomized test where taste panelists (n≥15) evaluate a pair of sweetener solutions at a time—one sample contains aqueous sweetener solution plus compound (i.e. test) while the other contains aqueous sweetener solution at higher concentration without compound (i.e. positive control). Each test sample was compared against a positive control. For example, if the test sample contained 1× sweetener concentration with compound (e.g. 5brix HFCS with compound), the positive control sample contained a 1.1× sweetener concentration (e.g. 5.5brix HFCS without compound). In this manner, compounds were not assessed simply for an increase in perceived sweetness, but a significant increase in perceived sweetness above the positive control. […] Data were analyzed using binomial probabilities. Approximate levels of sweetness enhancement in column 5 of Table 1 were calculated as follows: Approximate levels of sweetness enhancement=Sweetener concentration of positive control surpassed by the test sample, divided by sweetener concentration for compound-containing sample (e.g. 1.5×=7.5brix HIFCS/5brix HIFCS).

## COc1cc(C2CC(=O)Oc3cc(C)cc(O)c32)ccc1O (racemic) [Compound 1, 5-hydroxy-4-(4-hydroxy-3-methoxyphenyl)-7-methylchroman-2-one]
25 ppm compound, 10 brix HFCS / 7.14 brix HFCS
  Fold increase in perceived sweetness: >1.4×
Test sample 7.14 brix HFCS vs positive control 10 brix HFCS, panelists n≥15
  Compund concentration with positive 2AFC results: 25 ppm
Test sample 7.14 brix HFCS with 25 ppm compound
  Sweetener Concentration of positive control surpassed by test sample: 10 brix HFCS
